Test results taken from ChEMBL document CHEMBL1201862, “PubChem BioAssay data set” (2004).
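Each compound was tested at five concentrations against cells in 96-well plates for 48 hours. GI50 is the concentration that inhibits growth by half.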 Active and inactive are the calls of the source. No stated cut-off is given here; in the data, active = GI50 up to about 1.1 µM and inactive = higher.

Experiments:
Test in all cases: DTP human tumour cell line panel, 48 h
786-0 = tested on: 786-0
A498 = tested on: A498
A549 = tested on: A549
ACHN = tested on: ACHN
BT-549 = tested on: BT-549
CAKI-1 = tested on: CAKI-1
CCRF-CEM = tested on: CCRF-CEM
COLO 205 = tested on: COLO 205
DU-145 = tested on: DU-145
EKVX = tested on: EKVX
HCC 2998 = tested on: HCC 2998
HCT-116 = tested on: HCT-116
HCT-15 = tested on: HCT-15
HL-60 = tested on: HL-60
HOP-62 = tested on: HOP-62
HOP-92 = tested on: HOP-92
HT-29 = tested on: HT-29
Hs-578T = tested on: Hs-578T
IGROV-1 = tested on: IGROV-1
K562 = tested on: K562
KM12 = tested on: KM12
LOX IMVI = tested on: LOX IMVI
M14 = tested on: M14
MCF7 = tested on: MCF7
MDA-MB-231 = tested on: MDA-MB-231
MDA-MB-435 = tested on: MDA-MB-435
MDA-N = tested on: MDA-N
MOLT-4 = tested on: MOLT-4
Malme-3M = tested on: Malme-3M
NCI-H226 = tested on: NCI-H226
NCI-H23 = tested on: NCI-H23
NCI-H460 = tested on: NCI-H460
NCI-H522 = tested on: NCI-H522
NCI/ADR-RES = tested on: NCI/ADR-RES
OVCAR-3 = tested on: OVCAR-3
OVCAR-4 = tested on: OVCAR-4
OVCAR-5 = tested on: OVCAR-5
OVCAR-8 = tested on: OVCAR-8
PC-3 = tested on: PC-3
RPMI-8226 = tested on: RPMI-8226
RXF 393 = tested on: RXF 393
SF-268 = tested on: SF-268
SF-295 = tested on: SF-295
SF-539 = tested on: SF-539
SK-MEL-28 = tested on: SK-MEL-28
SK-MEL-2 = tested on: SK-MEL-2
SK-MEL-5 = tested on: SK-MEL-5
SK-OV-3 = tested on: SK-OV-3
SN12C = tested on: SN12C
SNB-19 = tested on: SNB-19
SNB-75 = tested on: SNB-75
SR = tested on: SR
SW-620 = tested on: SW-620
T47D = tested on: T47D
TK-10 = tested on: TK-10
U-251 = tested on: U-251
UACC-257 = tested on: UACC-257
UACC-62 = tested on: UACC-62
UO-31 = tested on: UO-31

SMILES: Cc1occc1C(=S)Nc1ccc(Cl)c(/C=N/OC(C)C)c1
- GI50 (786-0): 18.5 µM (inactive)
- GI50 (A498): 19.2 µM (inactive)
- GI50 (A549): 22.3 µM (inactive)
- GI50 (ACHN): 21.2 µM (inactive)
- GI50 (BT-549): 18.2 µM (inactive)
- GI50 (CAKI-1): 17.3 µM (inactive)
- GI50 (CCRF-CEM): 18.1 µM (inactive)
- GI50 (COLO 205): 16.9 µM (inactive)
- GI50 (DU-145): 24 µM (inactive)
- GI50 (EKVX): 23 µM (inactive)
- GI50 (HCC 2998): 26.5 µM (inactive)
- GI50 (HCT-116): 20.4 µM (inactive)
- GI50 (HCT-15): 17.4 µM
- GI50 (HL-60): 26.7 µM (inactive)
- GI50 (HOP-62): 25.2 µM (inactive)
- GI50 (HOP-92): 16.1 µM (inactive)
- GI50 (HT-29): 19.3 µM (inactive)
- GI50 (Hs-578T): 26.7 µM (inactive)
- GI50 (IGROV-1): 27.8 µM (inactive)
- GI50 (K562): 29.7 µM (inactive)
- GI50 (KM12): 20 µM (inactive)
- GI50 (LOX IMVI): 16 µM (inactive)
- GI50 (M14): 23.3 µM (inactive)
- GI50 (MCF7): 19.1 µM (inactive)
- GI50 (MDA-MB-231): 16.4 µM (inactive)
- GI50 (MDA-MB-435): 16.4 µM (inactive)
- GI50 (MDA-N): 20.8 µM (inactive)
- GI50 (MOLT-4): 20.8 µM (inactive)
- GI50 (Malme-3M): 19.8 µM (inactive)
- GI50 (NCI-H226): 18.2 µM (inactive)
- GI50 (NCI-H23): 20.1 µM (inactive)
- GI50 (NCI-H460): 21 µM (inactive)
- GI50 (NCI-H522): 12.7 µM (inactive)
- GI50 (NCI/ADR-RES): 22.2 µM (inactive)
- GI50 (OVCAR-3): 15.6 µM (inactive)
- GI50 (OVCAR-4): 24.9 µM (inactive)
- GI50 (OVCAR-5): 21 µM (inactive)
- GI50 (OVCAR-8): 22.8 µM (inactive)
- GI50 (PC-3): 24.9 µM (inactive)
- GI50 (RPMI-8226): 20 µM (inactive)
- GI50 (RXF 393): 21.3 µM (inactive)
- GI50 (SF-268): 28.1 µM (inactive)
- GI50 (SF-295): 18.3 µM (inactive)
- GI50 (SF-539): 16.7 µM (inactive)
- GI50 (SK-MEL-28): 27 µM (inactive)
- GI50 (SK-MEL-2): 19.2 µM (inactive)
- GI50 (SK-MEL-5): 19.9 µM (inactive)
- GI50 (SK-OV-3): 24.3 µM (inactive)
- GI50 (SN12C): 16.8 µM (inactive)
- GI50 (SNB-19): 27.1 µM (inactive)
- GI50 (SNB-75): 25.1 µM (inactive)
- GI50 (SR): 21.1 µM (inactive)
- GI50 (SW-620): 20.9 µM (inactive)
- GI50 (T47D): 12.1 µM (inactive)
- GI50 (TK-10): 25.5 µM (inactive)
- GI50 (U-251): 19.5 µM (inactive)
- GI50 (UACC-257): 22 µM (inactive)
- GI50 (UACC-62): 14.5 µM (inactive)
- GI50 (UO-31): 19.4 µM (inactive)

SMILES: N#Cc1ccc(NC(=O)C(CC(=O)OCc2ccccc2)NC(=O)OCc2ccccc2)cc1 (configuration not stated)
- GI50 (786-0): > 10 µM (inactive)
- GI50 (A498): > 10 µM (inactive)
- GI50 (A549): > 10 µM (inactive)
- GI50 (ACHN): > 10 µM (inactive)
- GI50 (BT-549): > 10 µM (inactive)
- GI50 (CAKI-1): > 10 µM (inactive)
- GI50 (CCRF-CEM): > 10 µM (inactive)
- GI50 (COLO 205): > 10 µM (inactive)
- GI50 (DU-145): 3.72 µM (inactive)
- GI50 (EKVX): > 10 µM (inactive)
- GI50 (HCC 2998): 93.3 µM (inactive)
- GI50 (HCT-116): > 10 µM (inactive)
- GI50 (HCT-15): > 10 µM
- GI50 (HL-60): > 10 µM (inactive)
- GI50 (HOP-62): > 10 µM (inactive)
- GI50 (HOP-92): > 10 µM (inactive)
- GI50 (HT-29): > 10 µM (inactive)
- GI50 (Hs-578T): > 10 µM (inactive)
- GI50 (IGROV-1): > 10 µM (inactive)
- GI50 (K562): > 10 µM (inactive)
- GI50 (KM12): > 10 µM (inactive)
- GI50 (LOX IMVI): > 10 µM (inactive)
- GI50 (M14): > 10 µM (inactive)
- GI50 (MCF7): > 10 µM (inactive)
- GI50 (MDA-MB-231): > 10 µM (inactive)
- GI50 (MDA-MB-435): > 10 µM (inactive)
- GI50 (MDA-N): > 10 µM (inactive)
- GI50 (MOLT-4): > 10 µM (inactive)
- GI50 (Malme-3M): 5.74 µM (inactive)
- GI50 (NCI-H226): > 10 µM (inactive)
- GI50 (NCI-H23): > 10 µM (inactive)
- GI50 (NCI-H460): > 10 µM (inactive)
- GI50 (NCI-H522): > 10 µM (inactive)
- GI50 (NCI/ADR-RES): > 10 µM (inactive)
- GI50 (OVCAR-3): > 10 µM (inactive)
- GI50 (OVCAR-4): > 10 µM (inactive)
- GI50 (OVCAR-5): > 10 µM (inactive)
- GI50 (OVCAR-8): > 10 µM (inactive)
- GI50 (PC-3): > 10 µM (inactive)
- GI50 (RPMI-8226): > 10 µM (inactive)
- GI50 (RXF 393): > 10 µM (inactive)
- GI50 (SF-268): > 10 µM (inactive)
- GI50 (SF-295): > 10 µM (inactive)
- GI50 (SF-539): > 10 µM (inactive)
- GI50 (SK-MEL-28): > 10 µM (inactive)
- GI50 (SK-MEL-2): > 100 µM (inactive)
- GI50 (SK-MEL-5): 92 µM (inactive)
- GI50 (SK-OV-3): > 10 µM (inactive)
- GI50 (SN12C): > 10 µM (inactive)
- GI50 (SNB-19): > 10 µM (inactive)
- GI50 (SNB-75): > 10 µM (inactive)
- GI50 (SR): > 10 µM (inactive)
- GI50 (SW-620): > 10 µM (inactive)
- GI50 (T47D): > 10 µM (inactive)
- GI50 (TK-10): > 10 µM (inactive)
- GI50 (U-251): > 10 µM (inactive)
- GI50 (UACC-257): > 10 µM (inactive)
- GI50 (UACC-62): > 10 µM (inactive)
- GI50 (UO-31): > 10 µM (inactive)

SMILES: C=CC(c1ccccc1)[C@@]1(OC(C)=O)C(=O)C(=O)OC1C1COC(C)(C)O1 (some centres not stated)
- GI50 (786-0): 10.4 µM (inactive)
- GI50 (A498): 19.7 µM (inactive)
- GI50 (A549): 18 µM (inactive)
- GI50 (ACHN): 5.78 µM (inactive)
- GI50 (BT-549): 12 µM (inactive)
- GI50 (CAKI-1): 4.72 µM (inactive)
- GI50 (CCRF-CEM): 2.84 µM (inactive)
- GI50 (COLO 205): 8.26 µM (inactive)
- GI50 (DU-145): 21.2 µM (inactive)
- GI50 (EKVX): 17.9 µM (inactive)
- GI50 (HCC 2998): 17.2 µM (inactive)
- GI50 (HCT-116): 11.1 µM (inactive)
- GI50 (HCT-15): 9.62 µM
- GI50 (HL-60): 2.11 µM (inactive)
- GI50 (HOP-62): 17.3 µM (inactive)
- GI50 (HOP-92): 5.92 µM (inactive)
- GI50 (HT-29): 15.1 µM (inactive)
- GI50 (Hs-578T): 22.9 µM (inactive)
- GI50 (IGROV-1): 15.3 µM (inactive)
- GI50 (K562): 3.94 µM (inactive)
- GI50 (KM12): 15.2 µM (inactive)
- GI50 (LOX IMVI): 4.16 µM (inactive)
- GI50 (M14): 11.1 µM (inactive)
- GI50 (MCF7): 5.68 µM (inactive)
- GI50 (MDA-MB-231): 14.4 µM (inactive)
- GI50 (MDA-MB-435): 13.9 µM (inactive)
- GI50 (MDA-N): 10.4 µM (inactive)
- GI50 (MOLT-4): 3.7 µM (inactive)
- GI50 (Malme-3M): 15.2 µM (inactive)
- GI50 (NCI-H226): 17.2 µM (inactive)
- GI50 (NCI-H23): 18.2 µM (inactive)
- GI50 (NCI-H460): 14.5 µM (inactive)
- GI50 (NCI-H522): 3.77 µM (inactive)
- GI50 (NCI/ADR-RES): 15.5 µM (inactive)
- GI50 (OVCAR-3): 10.7 µM (inactive)
- GI50 (OVCAR-4): 14.9 µM (inactive)
- GI50 (OVCAR-5): 18.5 µM (inactive)
- GI50 (OVCAR-8): 13.1 µM (inactive)
- GI50 (PC-3): 10.9 µM (inactive)
- GI50 (RPMI-8226): 5.79 µM (inactive)
- GI50 (RXF 393): 4.68 µM (inactive)
- GI50 (SF-268): 24.2 µM (inactive)
- GI50 (SF-295): 16.7 µM (inactive)
- GI50 (SF-539): 10.4 µM (inactive)
- GI50 (SK-MEL-28): 8.32 µM (inactive)
- GI50 (SK-MEL-2): 16.4 µM (inactive)
- GI50 (SK-MEL-5): 15.9 µM (inactive)
- GI50 (SK-OV-3): 18.1 µM (inactive)
- GI50 (SN12C): 7.66 µM (inactive)
- GI50 (SNB-19): 19.5 µM (inactive)
- GI50 (SNB-75): 14.5 µM (inactive)
- GI50 (SR): 2.43 µM (inactive)
- GI50 (SW-620): 8.13 µM (inactive)
- GI50 (T47D): 13.2 µM (inactive)
- GI50 (TK-10): 14.1 µM (inactive)
- GI50 (U-251): 14.3 µM (inactive)
- GI50 (UACC-257): 9.71 µM (inactive)
- GI50 (UACC-62): 14.1 µM (inactive)
- GI50 (UO-31): 11.5 µM (inactive)
